This experiment has as its target T1, BRM (Homo sapiens, UniProt P51531).
T1 construct: In-Cell Western Screen of BRM Degradation in SW1573 Cells; endogenous in cells; host or cells: SW1573
Nature of the experiment: In-cell Western screen of BRM degradation in SW1573 cells (Dmax and DC50). The class given is cell-based. The essentials: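 SW1573 cells were treated overnight (18-20 hours) with compound at 0.1% final DMSO. They were then PFA-fixed, permeabilised with Triton X-100 and immunostained with 800 nm/680 nm secondary antibodies. BRM signal was quantified by LI-COR in-cell Western imaging to derive Dmax and DC50.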

The mark [1] stands for this setting: BRM degradation, SW1573 cells, Table 2D, read-out: *DC50.
[2] abbreviates: BRM degradation, SW1573 cells, read-out: DC50.
Setting [3] is: SW1573, % degraded, when tested at the top concentration of between 0.3 and 10 μM, read-out: BRM Dmax (%).
Where [4] appears, read: target protein degradation, read-out: BRM DC50.
The mark [5] stands for this setting: BRM degradation, SW1573 cells, when tested at the top concentration of between 0.3 and 10 μM, read-out: Dmax (%) (% degraded).

Where two headings read alike, the source gives them in different places. Bounds are passed on as bounds.

T1 sequence (P51531 whole entry): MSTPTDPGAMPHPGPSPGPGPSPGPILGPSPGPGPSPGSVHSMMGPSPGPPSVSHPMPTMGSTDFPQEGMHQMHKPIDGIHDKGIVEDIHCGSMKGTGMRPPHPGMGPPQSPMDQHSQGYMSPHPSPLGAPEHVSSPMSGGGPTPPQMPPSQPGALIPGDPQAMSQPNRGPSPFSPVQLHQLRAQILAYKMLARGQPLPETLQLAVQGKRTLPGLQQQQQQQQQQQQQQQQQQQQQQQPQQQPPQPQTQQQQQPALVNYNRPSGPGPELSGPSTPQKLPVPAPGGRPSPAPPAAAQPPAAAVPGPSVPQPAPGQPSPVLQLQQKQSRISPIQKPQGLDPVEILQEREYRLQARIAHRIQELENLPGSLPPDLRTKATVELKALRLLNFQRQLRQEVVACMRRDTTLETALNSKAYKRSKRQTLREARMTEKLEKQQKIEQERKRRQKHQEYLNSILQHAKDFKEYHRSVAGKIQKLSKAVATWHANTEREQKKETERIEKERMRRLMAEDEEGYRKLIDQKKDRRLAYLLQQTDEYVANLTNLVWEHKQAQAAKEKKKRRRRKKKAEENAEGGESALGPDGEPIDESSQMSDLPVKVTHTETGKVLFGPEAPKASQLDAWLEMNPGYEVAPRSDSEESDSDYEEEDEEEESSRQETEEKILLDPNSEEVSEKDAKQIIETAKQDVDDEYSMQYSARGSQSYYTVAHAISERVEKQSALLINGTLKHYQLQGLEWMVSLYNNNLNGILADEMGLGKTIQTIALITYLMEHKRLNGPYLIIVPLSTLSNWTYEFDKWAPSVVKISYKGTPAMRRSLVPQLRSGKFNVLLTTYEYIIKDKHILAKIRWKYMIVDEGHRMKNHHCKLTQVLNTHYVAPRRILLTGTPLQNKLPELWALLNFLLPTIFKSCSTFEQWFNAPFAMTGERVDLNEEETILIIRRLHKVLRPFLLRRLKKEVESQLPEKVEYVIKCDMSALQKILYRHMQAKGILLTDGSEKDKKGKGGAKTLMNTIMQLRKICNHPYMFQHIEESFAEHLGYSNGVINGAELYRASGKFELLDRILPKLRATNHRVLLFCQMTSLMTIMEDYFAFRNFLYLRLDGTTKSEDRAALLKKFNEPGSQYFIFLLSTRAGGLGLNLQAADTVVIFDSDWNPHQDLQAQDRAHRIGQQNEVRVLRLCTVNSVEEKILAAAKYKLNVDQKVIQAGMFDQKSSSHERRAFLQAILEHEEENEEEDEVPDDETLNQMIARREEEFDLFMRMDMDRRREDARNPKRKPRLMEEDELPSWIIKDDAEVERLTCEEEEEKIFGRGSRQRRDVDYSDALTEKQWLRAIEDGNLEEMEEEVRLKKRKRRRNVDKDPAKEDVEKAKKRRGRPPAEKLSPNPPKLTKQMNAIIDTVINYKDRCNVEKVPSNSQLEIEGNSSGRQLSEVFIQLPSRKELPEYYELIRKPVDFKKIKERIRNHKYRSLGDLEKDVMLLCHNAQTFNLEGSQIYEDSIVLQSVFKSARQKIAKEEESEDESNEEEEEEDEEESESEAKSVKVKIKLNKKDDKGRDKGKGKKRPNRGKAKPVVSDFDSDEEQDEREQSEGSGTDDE

Broadly, the DC50 is the midpoint of the concentration-degradation curve. Regarding `Cc1ncsc1-c1ccc([C@H](C)NC(=O)[C@@H]2C[C@@H](O)CN2C(=O)[C@H](c2cc(OCCCOc3cc(N4C5CCC4CN(c4cc(-c6ccccc6O)nnc4N)C5)ccn3)no2)C(C)C)cc1` [compound 613, (2S,4R)-1-((2S)-2-(3-(3-((4-(3-(3-amino-6-(2-hydroxyphenyl)pyridazin-4-yl)-3,8-diazabicyclo[3.2.1]octan-8-yl)pyridin-2-yl)oxy)propoxy)isoxazol-5-yl)-3-methylbutanoyl)-4-hydroxy-N-((S)-1-(4-(4-methylthiazol-5-yl)phenyl)ethyl)pyrrolidine-2-carboxamide], under setting [1], the 50% degradation concentration (DC50) was above 30 nM.
On the same count and under the same terms, for `Cc1ncsc1-c1cc(F)c([C@@H](C)NC(=O)[C@@H]2C[C@@H](O)CN2C(=O)[C@@H](c2cc(OCCN3CCC(O[C@H]4C[C@H](Oc5cc(N6C7CCC6CN(c6cc(-c8ccccc8O)nnc6N)C7)ccn5)C4)CC3)no2)C(C)C)cn1` [compound 541, (2S,4R)-1-((2R)-2-(3-(2-(4-((1r,3R)-3-((4-(3-(3-amino-6-(2-hydroxyphenyl)pyridazin-4-yl)-3,8-diazabicyclo[3.2.1]octan-8-yl)pyridin-2-yl)oxy)cyclobutoxy)piperidin-1-yl)ethoxy)isoxazol-5-yl)-3-methylbutanoyl)-N-((R)-1-(4-fluoro-6-(4-methylthiazol-5-yl)pyridin-3-yl)ethyl)-4-hydroxypyrrolidine-2-carboxamide] the value was above 30 nM.
With `Cc1nccn1-c1ccc([C@@H](C)NC(=O)[C@H]2C[C@H](O)CN2C(=O)[C@@H](c2cc(N3CCN(CC4CCN(C[C@H]5C[C@H](Oc6cc(N7C8CCC7CN(c7cc(-c9ccccc9O)nnc7N)C8)ccn6)C5)CC4)CC3)no2)C(C)C)cc1` (racemic) [compound 447, rac-(2R,4S)-1-((2R)-2-(3-(4-((1-(((1r,3r)-3-((4-(3-(3-amino-6-(2-hydroxyphenyl)pyridazin-4-yl)-3,8-diazabicyclo[3.2.1]octan-8-yl)pyridin-2-yl)oxy)cyclobutyl)methyl)piperidin-4-yl)methyl)piperazin-1-yl)isoxazol-5-yl)-3-methylbutanoyl)-4-hydroxy-N-((R)-1-(4-(2-methyl-1H-imidazol-1-yl)phenyl)ethyl)pyrrolidine-2-carboxamide], the DC50 (degradation of BRM, read-out: BRM DC50) is above 30 nM.
As to `Cc1ncsc1-c1ccc([C@H](C)NC(=O)[C@@H]2C[C@@H](O)CN2C(=O)[C@H](c2cc(N3CCC(CN4CCC(O[C@H]5C[C@H](Oc6cc(/C=C/c7cc(-c8ccccc8O)nnc7N)ccn6)C5)CC4)CC3)no2)C(C)C)cc1` [compound 625, (2S,4R)-1-((S)-2-(3-(4-((4-((1r,3r)-3-((4-((E)-2-(3-amino-6-(2-hydroxyphenyl)pyridazin-4-yl)vinyl)pyridin-2-yl)oxy)cyclobutoxy)piperidin-1-yl)methyl)piperidin-1-yl)isoxazol-5-yl)-3-methylbutanoyl)-4-hydroxy-N-((S)-1-(4-(4-methylthiazol-5-yl)phenyl)ethyl)pyrrolidine-2-carboxamide], the DC50 under setting [1] is above 30 nM.
`Cc1ncsc1-c1ccc([C@H](C)NC(=O)[C@@H]2C[C@@H](O)CN2C(=O)[C@H](c2cc(N3CCCC(CN4CCC(O[C@H]5C[C@H](Oc6cc(N7C8CCC7CN(c7cc(-c9ccccc9O)nnc7N)C8)ccn6)C5)CC4)C3)no2)C(C)C)cc1` (stereo partly drawn) [compound 655, (2S,4R)-1-((2S)-2-(3-(3-((4-((1r,3S)-3-((4-(3-(3-amino-6-(2-hydroxyphenyl)pyridazin-4-yl)-3,8-diazabicyclo[3.2.1]octan-8-yl)pyridin-2-yl)oxy)cyclobutoxy)piperidin-1-yl)methyl)piperidin-1-yl)isoxazol-5-yl)-3-methylbutanoyl)-4-hydroxy-N-((S)-1-(4-(4-methylthiazol-5-yl)phenyl)ethyl)pyrrolidine-2-carboxamide]: under setting [2], the DC50 was above 30 nM.
The term Dmax denotes the largest share of the target that was removed. As to `Cc1ncsc1-c1ccc([C@H](C)NC(=O)[C@@H]2C[C@@H](O)CN2C(=O)[C@@H](c2cc(OCCC3CCN(C(=O)[C@H]4C[C@@H](CN5CCC([C@H](C)n6cc(-c7cc(-c8ccccc8O)nnc7N)cn6)CC5)C4)CC3)no2)C(C)C)cc1` [compound 450, (2S,4R)-1-((R)-2-(3-(2-(1-((1R,3S)-3-((4-((S)-1-(4-(3-amino-6-(2-hydroxyphenyl)pyridazin-4-yl)-1H-pyrazol-1-yl)ethyl)piperidin-1-yl)methyl)cyclobutane-1-carbonyl)piperidin-4-yl)ethoxy)isoxazol-5-yl)-3-methylbutanoyl)-4-hydroxy-N-((S)-1-(4-(4-methylthiazol-5-yl)phenyl)ethyl)pyrrolidine-2-carboxamide], the Dmax under setting [3] was above 75%. Under setting [4], the 50% degradation concentration (DC50) lay within 10 to 30 nM.
As to `Cc1nccn1-c1ccc([C@H](C)NC(=O)[C@@H]2C[C@@H](O)CN2C(=O)[C@@H](c2cc(OCCN3CCC(O[C@H]4C[C@H](Oc5cc(N6C7CCC6CN(c6cc(-c8ccccc8O)nnc6N)C7)ccn5)C4)CC3)no2)C(C)C)cc1` [compound 178, (2S,4R)-1-((2R)-2-(3-(2-(4-((1r,3R)-3-((4-(3-(3-amino-6-(2-hydroxyphenyl)pyridazin-4-yl)-3,8-diazabicyclo[3.2.1]octan-8-yl)pyridin-2-yl)oxy)cyclobutoxy)piperidin-1-yl)ethoxy)isoxazol-5-yl)-3-methylbutanoyl)-4-hydroxy-N-((S)-1-(4-(2-methyl-1H-imidazol-1-yl)phenyl)ethyl)pyrrolidine-2-carboxamide], under setting [2], the DC50 is below 2.5 nM. Besides, the maximal degradation (Dmax) (BRM degradation, SW1573 cells, tested at the top concentration of between 0.3 and 10 μM, read-out: Dmax (%) (% degraded)) is above 75%.
As to `Cc1ncsc1-c1ccc([C@H](C)NC(=O)[C@@H]2C[C@@H](O)CN2C(=O)[C@@H](c2cc(OCCN3CCN(Cc4ccc(C(C)n5cc(-c6cc(-c7ccccc7O)nnc6N)cn5)cc4)CC3)no2)C(C)C)cc1` (stereo partly drawn) [compound 83, (2S,4R)-1-((2R)-2-(3-(2-(4-(4-(1-(4-(3-amino-6-(2-hydroxyphenyl)pyridazin-4-yl)-1H-pyrazol-1-yl)ethyl)benzyl)piperazin-1-yl)ethoxy)isoxazol-5-yl)-3-methylbutanoyl)-4-hydroxy-N-((S)-1-(4-(4-methylthiazol-5-yl)phenyl)ethyl)pyrrolidine-2-carboxamide], under setting [2], the 50% degradation concentration (DC50) is below 2.5 nM. For the same compound, the Dmax under setting [5] was above 75%.
`Cc1ncsc1-c1ccc([C@H](C)NC(=O)[C@@H]2C[C@@H](O)CN2C(=O)[C@H](c2cc(C#CCN3CCC(OC4CC(Oc5cc(N6C7CC[C@@H]6CN(c6cc(-c8ccccc8O)nnc6N)C7)ccn5)C4)CC3)no2)C(C)C)cc1` (stereo partly drawn) [compound 379, (2S,4R)-1-((2S)-2-(3-(3-(4-((1r,3S)-3-((4-(3-(3-amino-6-(2-hydroxyphenyl)pyridazin-4-yl)-3,8-diazabicyclo[3.2.1]octan-8-yl)pyridin-2-yl)oxy)cyclobutoxy)piperidin-1-yl)prop-1-yn-1-yl)isoxazol-5-yl)-3-methylbutanoyl)-4-hydroxy-N-((S)-1-(4-(4-methylthiazol-5-yl)phenyl)ethyl)pyrrolidine-2-carboxamide]: the DC50 under setting [4] is above 30 nM.
As to `Cc1ncsc1-c1ccc([C@H](C)NC(=O)[C@@H]2C[C@@H](O)CN2C(=O)[C@@H](c2cc(OCCN3CCC(O[C@H]4C[C@H](OCCN5CCOC6(CCN(c7cc(-c8ccccc8O)nnc7N)CC6)C5)C4)CC3)no2)C(C)C)cc1` [compound 359, (2S,4R)-1-((R)-2-(3-(2-(4-((1r,3R)-3-(2-(9-(3-amino-6-(2-hydroxyphenyl)pyridazin-4-yl)-1-oxa-4,9-diazaspiro[5.5]undecan-4-yl)ethoxy)cyclobutoxy)piperidin-1-yl)cthoxy)isoxazol-5-yl)-3-methylbutanoyl)-4-hydroxy-N-((S)-1-(4-(4-methylthiazol-5-yl)phenyl)ethyl)pyrrolidine-2-carboxamide], the maximal degradation (Dmax) under setting [3] is above 75%. Besides, the DC50 under setting [4] was below 2.5 nM.
On to `Cc1ncsc1-c1ccc([C@H](C)NC(=O)[C@@H]2C[C@@H](O)CN2C(=O)[C@H](c2cc(OCC[C@@H]3CCN(C[C@H]4C[C@H](Oc5cc(N6C7CCC6CN(c6cc(-c8ccccc8O)nnc6N)C7)ccn5)C4)[C@H](C)[C@@H]3C)no2)C(C)C)cc1` (single isomer, unassigned) [compound 583], for which the half-maximal degradation concentration (DC50) under setting [1] is above 30 nM.
For the compound `Cc1ncsc1-c1ccc([C@H](C)NC(=O)[C@@H]2C[C@@H](O)CN2C(=O)[C@@H](c2cc(OCCC3CCN(C(=O)[C@H]4C[C@H](CN5CCC([C@H](C)n6cc(-c7cc(-c8ccccc8O)nnc7N)cn6)CC5)C4)CC3)no2)C(C)C)cc1` [compound 454, (2S,4R)-1-((R)-2-(3-(2-(1-((1S,3R)-3-((4-((S)-1-(4-(3-amino-6-(2-hydroxyphenyl)pyridazin-4-yl)-1H-pyrazol-1-yl)ethyl)piperidin-1-yl)methyl)cyclobutane-1-carbonyl)piperidin-4-yl)ethoxy)isoxazol-5-yl)-3-methylbutanoyl)-4-hydroxy-N-((S)-1-(4-(4-methylthiazol-5-yl)phenyl)ethyl)pyrrolidine-2-carboxamide], under setting [4], the 50% degradation concentration (DC50) is above 30 nM.
Take `Cc1ncsc1-c1ccc(CNC(=O)[C@@H]2C[C@@H](O)CN2C(=O)[C@H](C(C)C)N2Cc3ccccc3C2=O)c(OCCOCCOCCOCCOCCOCCn2cc(-c3cc(-c4ccccc4O)nnc3N)cn2)c1` [compound 20, (2S,4R)-N-(2-((17-(4-(3-amino-6-(2-hydroxyphenyl)pyridazin-4-yl)-1H-pyrazol-1-yl)-3,6,9,12,15-pentaoxaheptadecyl)oxy)-4-(4-methylthiazol-5-yl)benzyl)-4-hydroxy-1-((S)-3-methyl-2-(1-oxoisoindolin-2-yl)butanoyl)pyrrolidine-2-carboxamide]: the DC50 under setting [2] was above 30 nM. The Dmax under setting [5] lay in the range of 50 to 75%.

Values taken from patent publication US12539292B2, “BRM targeting compounds and associated methods of use” (Arvinas Operations, Inc., priority 2018, dated 2026).
